Data as given in ChEMBL document CHEMBL1126795, “Amesergide and structurally related nor-D-ergolines: 5HT2 receptor interactions in the rat” (J Med Chem, 1993).

Experiment: Concentration required to inhibit pressor response to serotonin after 15 min i.v. administration of compound mediated via activation of vascular 5-HT2 receptors in rat
Assay type: functional, organism-based

Concentration [mg/kg] | Compound
1 | CCCn1cc2c3c(cccc31)C[C@@H](N(C)CCC(=O)NC1CCCCC1)C2
1 | CN(CCC(=O)NC1CCCCC1)[C@@H]1Cc2cccc3[nH]cc(c23)C1
1 | CN(CCC(=O)NC1CCCCC1)[C@H]1Cc2cccc3[nH]cc(c23)C1
